Measured values taken from patent US10939681B2, “Tetrazolinone compound and use thereof” (SUMITOMO CHEMICAL COMPANY, LIMITED, priority 2017, dated 2021).

Test system: diamondback moth (Plutella xylostella)
Experiment: Control test against diamondback moth (Plutella xylostella), cabbage leaf spray
Type: in vivo
Conditions: 500 ppm active ingredient, sprayed on cabbage seedlings 20 mL/seedling, 2nd instar larvae, after 5 days, 25° C.
Experimental: Next, a Test Example is used to show efficacy of the Present compound against pests. In the following Test Example, the test was carried out at 25° C. The Present compound was formulated according to the process described in the Formulation Example 6 to obtain a formulation, and water containing a spreader (0.03% by volume) was added thereto to prepare a diluted solution containing 500 ppm of the active ingredient. Cabbage (Brassicae oleracea) seedlings (on the developmental stage of the second to third true leaf) were planted in a container, and said diluted solution was sprayed into the leaves of the seedlings at a ratio of 20 mL/seedling. Thereafter, the stems and leaves of the seedlings were cut out, and the leaves were placed into a container lined with a filter paper. Approximately five the 2nd instar larvae of diamondback moth (Plutella xylostella) were released into the container. After 5 days, the number of the surviving insects was examined, and the controlling value was calculated by the following equation. […] Controlling value (%)={1−(Cb×Tai)/(Cai×Tb)}×100 wherein the symbols in the equation represent the following meanings. […]

## Cc1cccc(-n2nnn(C)c2=O)c1Cn1nnn(-c2cccc(C)c2COc2ccn(-c3ccc(Cl)cc3)n2)c1=O [Present compound]
  Controlling value (control effects): 100%
